Test results reported in ChEMBL document CHEMBL1201862, “PubChem BioAssay data set” (2004).
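Grown in 96-well plates, cells were treated for 48 hours with each compound at five concentrations. Insufficient inhibition: endpoint recorded as highest concentration tested. GI50 = concentration required for 50% inhibition of growth.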 The source made the active and inactive calls. Rule as the data show it: active = GI50 up to about 1.1 µM and inactive = higher.

Columns and labels:
Assay in all cases: inhibition of tumour cell growth, NCI panel, 48 h
MDA-N = system: MDA-N
UACC-257 = system: UACC-257
HCT-116 = system: HCT-116
SNB-75 = system: SNB-75
BT-549 = system: BT-549
SW-620 = system: SW-620
A498 = system: A498
M14 = system: M14
MDA-MB-435 = system: MDA-MB-435
OVCAR-4 = system: OVCAR-4
RPMI-8226 = system: RPMI-8226
SF-539 = system: SF-539
HCT-15 = system: HCT-15
HCC 2998 = system: HCC 2998
SR = system: SR
SF-268 = system: SF-268
MDA-MB-231 = system: MDA-MB-231
MCF7 = system: MCF7
SK-OV-3 = system: SK-OV-3

Structure (SMILES) | GI50 (MDA-N) | GI50 (UACC-257) | GI50 (HCT-116) | GI50 (SNB-75) | GI50 (BT-549) | GI50 (SW-620) | GI50 (A498) | GI50 (M14) | GI50 (MDA-MB-435) | GI50 (OVCAR-4) | GI50 (RPMI-8226) | GI50 (SF-539) | GI50 (HCT-15) [µM] | GI50 (HCC 2998) | GI50 (SR) | GI50 (SF-268) | GI50 (MDA-MB-231) | GI50 (MCF7) | GI50 (SK-OV-3)
CCOC(=O)C1C(=O)CC(C)(O)C(C(=O)OCC)C1c1ccc(OC)cc1 (stereo unspecified) | > 100 µM (inactive) | > 100 µM (inactive) | > 100 µM (inactive) | > 100 µM (inactive) | > 100 µM (inactive) | > 100 µM (inactive) | > 100 µM (inactive) | > 100 µM (inactive) | > 100 µM (inactive) | > 100 µM (inactive) | > 100 µM (inactive) | > 100 µM (inactive) | > 100 | > 100 µM (inactive) | > 100 µM (inactive) | > 100 µM (inactive) | > 100 µM (inactive) | > 100 µM (inactive) | –
C[C@]12CC[C@@H]3c4cc(OCC(F)(F)F)c(O)cc4C(=O)C[C@H]3[C@@H]1CC[C@@H]2O | 1.6 µM (inactive) | 12.2 µM (inactive) | 3.72 µM (inactive) | 5.36 µM (inactive) | 6.34 µM (inactive) | 4.02 µM (inactive) | 7.93 µM (inactive) | 5.77 µM (inactive) | 1.78 µM (inactive) | 27.2 µM (inactive) | 3.2 µM (inactive) | 5.09 µM (inactive) | 4.18 | 6.11 µM (inactive) | 1.51 µM (inactive) | 13.7 µM (inactive) | 12.9 µM (inactive) | 5.07 µM (inactive) | 10.6 µM (inactive)
Cc1cc(NC2=CC(=O)C(=O)c3ccccc32)no1 | 1.85 µM (inactive) | 6.92 µM (inactive) | 14.7 µM (inactive) | 9.44 µM (inactive) | 5.53 µM (inactive) | 4.94 µM (inactive) | 18.7 µM (inactive) | 14.8 µM (inactive) | 1.88 µM (inactive) | 8.22 µM (inactive) | 6.05 µM (inactive) | 6.4 µM (inactive) | 3.62 | 20.7 µM (inactive) | 7.16 µM (inactive) | 15.2 µM (inactive) | 2.83 µM (inactive) | 2.81 µM (inactive) | 19.4 µM (inactive)
Cc1cc(C)n(C(=O)CSc2nnc(SCC(=O)n3nc(C)cc3C)s2)n1 | > 100 µM (inactive) | > 100 µM (inactive) | > 100 µM (inactive) | 40 µM (inactive) | > 100 µM (inactive) | > 100 µM (inactive) | > 100 µM (inactive) | > 100 µM (inactive) | > 100 µM (inactive) | > 100 µM (inactive) | > 100 µM (inactive) | > 100 µM (inactive) | > 100 | > 100 µM (inactive) | > 100 µM (inactive) | > 100 µM (inactive) | > 100 µM (inactive) | > 100 µM (inactive) | > 100 µM (inactive)
COc1ccccc1Cn1c2c(c3c(C(=O)NCCN(C)C)c(O)ccc31)C(=O)c1ccccc1C2=O | 1.4 µM (inactive) | 1.79 µM (inactive) | 0.759 µM (active) | 1.55 µM (inactive) | 7.13 µM (inactive) | – | 5.26 µM (inactive) | 1.32 µM (inactive) | 1.69 µM (inactive) | 1.65 µM (inactive) | 0.78 µM (active) | 1.9 µM (inactive) | 1.94 | 1.66 µM (inactive) | 0.291 µM (active) | 1.68 µM (inactive) | 1.99 µM (inactive) | 1.47 µM (inactive) | 6.52 µM (inactive)
COc1cc2cc(C(=O)N3CC(CCl)c4ccccc43)[nH]c2c(OC)c1OC (stereo unspecified) | 40.5 µM (inactive) | 99.3 µM (inactive) | 67.9 µM (inactive) | > 92.5 µM (inactive) | 28.6 µM (inactive) | 60.1 µM (inactive) | 18.2 µM (inactive) | 62.5 µM (inactive) | 19.2 µM (inactive) | > 94.4 µM (inactive) | 10.6 µM (inactive) | > 100 µM (inactive) | 24.1 | 17.2 µM (inactive) | 18.1 µM (inactive) | > 100 µM (inactive) | > 100 µM (inactive) | 32.2 µM (inactive) | > 100 µM (inactive)
COc1cc(C2S/C(=C/c3ccccc3)C(=O)N2c2ccc(Cl)cc2)cc(OC)c1OC (stereo unspecified) | 1.58 µM (inactive) | 34.2 µM (inactive) | 3.65 µM (inactive) | 16.4 µM (inactive) | 7.43 µM (inactive) | 12.9 µM (inactive) | 53.8 µM (inactive) | 2 µM (inactive) | 1.52 µM (inactive) | 4.71 µM (inactive) | 8.18 µM (inactive) | – | 9.51 | 36.6 µM (inactive) | 70 µM (inactive) | 8.24 µM (inactive) | > 43.9 µM (inactive) | 3.09 µM (inactive) | > 20.1 µM (inactive)
C=CCOc1ccccc1C1(O)c2ccccc2C2=NCCCN21 (stereo unspecified) | 39.9 µM (inactive) | 30.9 µM (inactive) | 34.2 µM (inactive) | 15.1 µM (inactive) | 81.1 µM (inactive) | 56.5 µM (inactive) | > 100 µM (inactive) | 18.7 µM (inactive) | 30.9 µM (inactive) | 70.3 µM (inactive) | 35.6 µM (inactive) | 17.6 µM (inactive) | > 100 | 15.7 µM (inactive) | > 100 µM (inactive) | > 100 µM (inactive) | > 100 µM (inactive) | 31.5 µM (inactive) | > 100 µM (inactive)
CC(=O)c1sc(=N)n(-c2c(C)cccc2C)c1C | > 100 µM (inactive) | – | – | > 100 µM (inactive) | > 100 µM (inactive) | > 100 µM (inactive) | > 100 µM (inactive) | > 100 µM (inactive) | > 100 µM (inactive) | > 100 µM (inactive) | > 100 µM (inactive) | > 100 µM (inactive) | > 100 | > 100 µM (inactive) | > 100 µM (inactive) | > 100 µM (inactive) | > 100 µM (inactive) | > 100 µM (inactive) | > 100 µM (inactive)
O=C(/N=N/c1ccc([N+](=O)[O-])cc1)NNc1ccc([N+](=O)[O-])cc1 | 11.6 µM (inactive) | 24.3 µM (inactive) | 11.8 µM (inactive) | 23.9 µM (inactive) | 15.5 µM (inactive) | 18.7 µM (inactive) | 4.46 µM (inactive) | 13.5 µM (inactive) | 12.8 µM (inactive) | 18.1 µM (inactive) | 14.3 µM (inactive) | – | 19.2 | 14.2 µM (inactive) | 15.4 µM (inactive) | 21.8 µM (inactive) | 24 µM (inactive) | 4.58 µM (inactive) | –
O=C1c2ccccc2CN1c1ccc(OCCN2CCCCC2)cc1 | > 10 µM (inactive) | > 10 µM (inactive) | > 10 µM (inactive) | > 10 µM (inactive) | > 10 µM (inactive) | > 10 µM (inactive) | > 10 µM (inactive) | > 10 µM (inactive) | > 10 µM (inactive) | > 10 µM (inactive) | > 10 µM (inactive) | > 10 µM (inactive) | > 10 | > 10 µM (inactive) | > 10 µM (inactive) | > 10 µM (inactive) | > 10 µM (inactive) | > 10 µM (inactive) | > 10 µM (inactive)
Cc1cc(C)nc(NS(=O)(=O)c2ccc(NC(=O)c3c4ccccc4nc4ccccc34)cc2)n1 | > 100 µM (inactive) | > 100 µM (inactive) | 68.4 µM (inactive) | > 100 µM (inactive) | 96.4 µM (inactive) | > 100 µM (inactive) | > 100 µM (inactive) | > 100 µM (inactive) | > 100 µM (inactive) | > 100 µM (inactive) | 47.3 µM (inactive) | > 100 µM (inactive) | 65.9 | > 100 µM (inactive) | > 100 µM (inactive) | > 100 µM (inactive) | > 100 µM (inactive) | > 100 µM (inactive) | > 100 µM (inactive)
CC(C)(C)C1(COC(=O)c2ccc(N)cc2)COC1 | 66.1 µM (inactive) | 43.5 µM (inactive) | 51.9 µM (inactive) | 76.6 µM (inactive) | 54.6 µM (inactive) | > 100 µM (inactive) | 87.3 µM (inactive) | 61 µM (inactive) | 53.3 µM (inactive) | 32.7 µM (inactive) | 58.9 µM (inactive) | 32.4 µM (inactive) | 63.2 | 57.5 µM (inactive) | 75.3 µM (inactive) | > 100 µM (inactive) | 52.1 µM (inactive) | 45 µM (inactive) | 58.1 µM (inactive)
CC(C)(CN1CCCCC1)C(=O)CC(SCCS(=O)(=O)O)c1ccc(Cl)cc1 (stereo unspecified) | 2.81 µM (inactive) | 6.67 µM (inactive) | 3.03 µM (inactive) | 4.32 µM (inactive) | 8.04 µM (inactive) | 4.1 µM (inactive) | 4.26 µM (inactive) | 3.19 µM (inactive) | 3.48 µM (inactive) | 3.84 µM (inactive) | 3.31 µM (inactive) | 2.3 µM (inactive) | 2.19 | 12.3 µM (inactive) | 2.18 µM (inactive) | – | 3.1 µM (inactive) | 3.3 µM (inactive) | 15.5 µM (inactive)
CCC1C(c2ccccc2O)c2cc3c(cc2OC1N1CCOCC1)OCO3 (stereo unspecified) | 12.8 µM (inactive) | 16 µM (inactive) | 13.6 µM (inactive) | 8.53 µM (inactive) | 15.6 µM (inactive) | 15.9 µM (inactive) | 14.3 µM (inactive) | 15.1 µM (inactive) | 15.6 µM (inactive) | – | 13.9 µM (inactive) | 16.3 µM (inactive) | 9.4 | 17.3 µM (inactive) | 14.5 µM (inactive) | 14.7 µM (inactive) | 16.8 µM (inactive) | 14.4 µM (inactive) | 22.2 µM (inactive)
